Literature values, collected in US11534589B2, “Iontophoretic microneedle device” (LTS LOHMANN THERAPIE-SYSTEME AG, priority 2017, dated 2022).
Read-outs that look alike come from different tables or passages of the source.

What was measured:
[1] = maltose microneedles combined with iontophoresis, hairless rats

Compound | Bioavailability (nasal spray) [%] | Bioavailability (oral tablet) | Increase in delivery [1] [fold]
CNS(=O)(=O)Cc1ccc2[nH]cc(CCN(C)C)c2c1.O=C(O)CCC(=O)O [sumatriptan, 3-[2-(dimethylamino)ethyl]-N-methyl-indole-5-methane-sulfonamide succinate (1:1)] | ≤ 14 | not more than 15% | 
CN(Cc1cnc2nc(N)nc(N)c2n1)c1ccc(C(=O)N[C@@H](CCC(=O)O)C(=O)O)cc1 [methotrexate] |  |  | 25
